Patent US20100113506A1, “COMPOSITION FOR PREVENTING OR TREATING THROMBUS- OR EMBOLUS- ASSOCIATED DISEASE” (priority 2007, published 2010)

Columns and labels:
[1] = Hematological parameters on automated hematology analyzer; assay type: in vivo, Japanese white rabbits; details: for Hematocrit / Hemoglobin / Platelet count / Red blood cell count / White blood cell count: mean ± standard error, blood 2 h after clopidogrel, EPA-E 300 mg/kg 4 weeks, clopidogrel 20 mg/kg; for Change of white blood cell count, red blood cell count, hemoglobin, hematocrit and platelet count: vs control group
Method: After the preliminary keeping, the rabbits were randomly divided into four groups, namely, control group, EPA-E group, clopidogrel group, and combination group. To the EPA-E group and the combination group, EPA-E was orally administered once a day for four weeks at a dose of 300 mg/kg. To the control group and the clopidogrel group, a 5% aqueous solution of gum arabic was orally administered instead of EPA-E. After the last EPA-E or gum arabic administration, the rabbits were fasted overnight, then clopidogrel was orally administered to the clopidogrel group and the combination group at a single dose of 20 mg/kg. To the control group and the EPA-E group, the 5% aqueous solution of gum arabic was orally administered instead of clopidogrel. Two hours after the clopidogrel administration, blood was sampled using a syringe containing citric acid in an amount of a tenth of the syringe volume, and the white blood cell count, red blood cell count, hemoglobin, hematocrit, and platelet count were measured on an automated hematology analyzer (type F-820 from Sysmex Corporation). The blood was centrifuged (at 150×g and at room temperature for 15 minutes) immediately after the above measurement to obtain platelet-rich plasma (PRP). […] The platelet aggregation activity was evaluated on the basis of maximum aggregation rate, and the suppressibility of platelet aggregation was calculated according to the following equation. The measurement results set forth for each group are each the mean of the values obtained in 8 or 9 cases plus/minus a standard error. The results were compared between the groups using the Tukey-Kramer method for multiple comparison testing, and the statistical significance was confirmed below a set level of 5%.

[2] = Bleeding time, ear puncture wound (method of Elg et al.); assay type: in vivo, Japanese white rabbits; details: rabbit ear puncture; EPA-E 300 mg/kg oral 4 weeks, clopidogrel 20 mg/kg single oral dose
[3] = Activated partial thromboplastin time (APTT) in platelet-poor plasma; assay type: in vivo, Japanese white rabbits; details: vs control group; EPA-E 300 mg/kg oral 4 weeks, clopidogrel 20 mg/kg single oral dose
Method: (§1) After the preliminary keeping, the rabbits were randomly divided into four groups, namely, control group, EPA-E group, clopidogrel group, and combination group. To the EPA-E group and the combination group, EPA-E was orally administered once a day for four weeks at a dose of 300 mg/kg. To the control group and the clopidogrel group, a 5% aqueous solution of gum arabic was orally administered instead of EPA-E. After the last EPA-E or gum arabic administration, the rabbits were fasted overnight, then clopidogrel was orally administered to the clopidogrel group and the combination group at a single dose of 20 mg/kg. […] Two hours after the clopidogrel administration, blood was sampled using a syringe containing citric acid in an amount of a tenth of the syringe volume, and the white blood cell count, red blood cell count, hemoglobin, hematocrit, and platelet count were measured on an automated hematology analyzer (type F-820 from Sysmex Corporation). […] The platelet aggregation activity was evaluated on the basis of maximum aggregation rate, and the suppressibility of platelet aggregation was calculated according to the following equation. Platelet-poor plasma (PPP) was measured in terms of prothrombin time (PT) and activated partial thromboplastin time (APTT) as coagulation-related parameters. […]

[4] = Prothrombin time (PT) in platelet-poor plasma; assay type: in vivo, Japanese white rabbits; details: vs control group; EPA-E 300 mg/kg oral 4 weeks, clopidogrel 20 mg/kg single oral dose
Method: as §1

[5] = system: platelet aggregation induced by ADP; assay: ADP-induced platelet aggregation in PRP of orally dosed rabbits (ex vivo); design: species or system Japanese white rabbits; details: ADP 3 μM, clopidogrel 20 mg/kg single oral dose; for Aggregation suppressibility: EPA-E 300 mg/kg oral once a day 4 weeks, blood 2 h after clopidogrel; for Effect on maximum aggregation rate: vs control group, EPA-E 300 mg/kg oral 4 weeks
Method: (§2) After the preliminary keeping, the rabbits were randomly divided into four groups, namely, control group, EPA-E group, clopidogrel group, and combination group. To the EPA-E group and the combination group, EPA-E was orally administered once a day for four weeks at a dose of 300 mg/kg. To the control group and the clopidogrel group, a 5% aqueous solution of gum arabic was orally administered instead of EPA-E. After the last EPA-E or gum arabic administration, the rabbits were fasted overnight, then clopidogrel was orally administered to the clopidogrel group and the combination group at a single dose of 20 mg/kg. To the control group and the EPA-E group, the 5% aqueous solution of gum arabic was orally administered instead of clopidogrel. Two hours after the clopidogrel administration, blood was sampled using a syringe containing citric acid in an amount of a tenth of the syringe volume, and the white blood cell count, red blood cell count, hemoglobin, hematocrit, and platelet count were measured on an automated hematology analyzer (type F-820 from Sysmex Corporation). The blood was centrifuged (at 150×g and at room temperature for 15 minutes) immediately after the above measurement to obtain platelet-rich plasma (PRP). The PRP was further centrifuged (at 1,500×g and at room temperature for 15 minutes) to collect platelet-poor plasma (PPP), and the platelet count was regulated with the PRP and PPP so that it might be […] (final level). The PRP was kept at 37° C. for four minutes, then an ADP (adenosine 5′-diphosphate) solution with a final concentration of 3 μM (MC Medical, Inc.) or a collagen solution with a final concentration of 6 μg/mL (Nycomed) was added thereto as an aggregation inducer so as to observe platelet aggregation using a platelet aggregation analyzer (MCM HEMA TRACER 313M from MC Medical, Inc.). The platelet aggregation activity was evaluated on the basis of maximum aggregation rate, and the suppressibility of platelet aggregation was calculated according to the following equation.
(§3) Aggregation suppressibility (%)={[maximum aggregation rate (mean) in control group]−[maximum aggregation rate (mean) in experimental group]}/[maximum aggregation rate (mean) in control group]×100.
(§4) The measurement results set forth for each group are each the mean of the values obtained in 8 or 9 cases plus/minus a standard error. The results were compared between the groups using the Tukey-Kramer method for multiple comparison testing, and the statistical significance was confirmed below a set level of 5%.

[6] = system: platelet aggregation induced by collagen; assay: Collagen-induced platelet aggregation in PRP of orally dosed rabbits (ex vivo); design: species or system Japanese white rabbits; details: collagen 6 μg/mL, clopidogrel 20 mg/kg single oral dose; for Effect on maximum aggregation rate: EPA-E 300 mg/kg oral 4 weeks; for Aggregation suppressibility: EPA-E 300 mg/kg oral once a day 4 weeks, blood 2 h after clopidogrel
Method: as §2, §3, §4

SMILES	Hematocrit [1] [%]	Hemoglobin [1] [g/dL]	Platelet count [1]	Red blood cell count [1]	White blood cell count [1]	Change of white blood cell count, red blood cell count, hemoglobin, hematocrit and platelet count [1]	Effect on bleeding time [2]	APTT (activated partial thromboplastin time) change [3]	PT (prothrombin time) change [4]	Aggregation suppressibility [5] [%]	Effect on maximum aggregation rate [5]	Effect on maximum aggregation rate [6]	Aggregation suppressibility [6] [%]
CC/C=C\C/C=C\C/C=C\C/C=C\C/C=C\CCCC(=O)OCC [EPA-E, ethyl icosapentate]	37.3 ± 0.6	13.1 ± 0.2	30.4 ± 1.2 ×10^4/μL	563 ± 10 ×10^4/μL	58.8 ± 5.2 ×10^2/μL	had not a statistically significant change	had no influence on the bleeding time	neither PT (prothrombin time) nor APTT (activated partial thromboplastin time) had a statistically significant change	neither PT (prothrombin time) nor APTT (activated partial thromboplastin time) had a statistically significant change	0	had no influence on the maximum aggregation rate	reduced the maximum aggregation rate significantly in a statistical sense	29
COC(=O)[C@H](c1ccccc1Cl)N1CCc2sccc2C1 [clopidogrel, (+)-(s)-methyl 2-(2-chlorophenyl)-2-(4,5,6,7-tetrahydrothieno[3,2-c]pyridin-5-yl) acetate monosulfate]	39.3 ± 1.2	13.8 ± 0.4	38.0 ± 2.3 ×10^4/μL	584 ± 17 ×10^4/μL	58.0 ± 4.8 ×10^2/μL	had not a statistically significant change	prolonged the bleeding time significantly in a statistical sense	neither PT (prothrombin time) nor APTT (activated partial thromboplastin time) had a statistically significant change	neither PT (prothrombin time) nor APTT (activated partial thromboplastin time) had a statistically significant change	29	reduced the maximum aggregation rate	no differences were seen which were statistically significant	7
